*1 amine or outer side, *2 acyl side, *3 side chain or, on linkers, in order; H or OH if unused. Where a SMILES comes first, the peptide text is derived from it. Bridges are numbered along the chain shown (N, C = ends). [ ]: non-standard residue; d: D form. The star is where a group is joined. hPhe(3-Cl-4-CF3) = N[C@@H](CCc1ccc(C(F)(F)F)c(Cl)c1)C(=O)O; NEtPhe(4-CF3) = CCN[C@@H](Cc1ccc(C(F)(F)F)cc1)C(=O)O; NEtPhe(4-Me) = CCN[C@@H](Cc1ccc(C)cc1)C(=O)O; NMePhe(4-Me) = CN[C@@H](Cc1ccc(C)cc1)C(=O)O; X30 = CCN([C@H](C(=O)[*:2])C1CCCC1)[*:1]; NMeGly(cPent) = CN[C@H](C(=O)O)C1CCCC1; Hyp = O=C(O)[C@@H]1C[C@@H](O)CN1; NMeF = CN[C@@H](Cc1ccccc1)C(=O)O; NMeD = CN[C@@H](CC(=O)O)C(=O)O; NMeL = CN[C@@H](CC(C)C)C(=O)O; NMeV = CN[C@H](C(=O)O)C(C)C; Morpholide = C1CN(*)CCO1; NMeA = CN[C@@H](C)C(=O)O; Ac5c = NC1(C(=O)O)CCCC1; Aze = O=C(O)[C@@H]1CCN1; NEtG = CCNCC(=O)O; Sar = CNCC(=O)O
Legend:
[1] = biological target: GDP-bound HRAS wild-type protein (Homo sapiens, UniProt P01112); assay: Binding to HRAS by surface plasmon resonance (SPR), Single Cycle Kinetics; details: KD ratio HRAS/KRAS, SPR
[2] = biological target: GDP-bound NRAS wild-type protein (Homo sapiens, UniProt P01111); assay: Binding to NRAS by surface plasmon resonance (SPR), Single Cycle Kinetics; details: KD ratio NRAS/KRAS, SPR
GDP-bound NRAS wild-type protein, sequence (P01111 whole entry): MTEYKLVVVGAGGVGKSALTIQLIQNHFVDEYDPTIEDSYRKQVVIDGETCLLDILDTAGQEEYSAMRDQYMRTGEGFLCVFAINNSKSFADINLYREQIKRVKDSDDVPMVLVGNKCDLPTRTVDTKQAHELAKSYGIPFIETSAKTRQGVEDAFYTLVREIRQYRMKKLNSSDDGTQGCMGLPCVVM

GDP-bound HRAS wild-type protein, sequence (P01112 whole entry): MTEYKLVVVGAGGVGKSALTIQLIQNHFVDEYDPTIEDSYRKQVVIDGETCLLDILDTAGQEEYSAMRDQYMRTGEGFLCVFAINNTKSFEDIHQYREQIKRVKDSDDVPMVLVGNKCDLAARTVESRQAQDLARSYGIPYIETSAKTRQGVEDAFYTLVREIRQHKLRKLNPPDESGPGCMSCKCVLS

| Structure (SMILES) | HRAS/KRAS (ratio of KD for GDP-bound HRAS wild-type to KD for KRAS) [1] | NRAS/KRAS (ratio of KD for GDP-bound NRAS wild-type to KD for KRAS) [2] |
| --- | --- | --- |
| CC[C@H](C)[C@@H]1NC(=O)[C@H](CC(C)C)N(C)C(=O)C[C@@H](C(=O)N2CCOCC2)N(C)C(=O)[C@H](C2CCCC2)N(C)C(=O)C2(CCCC2)NC(=O)[C@@H]2CCCN2C(=O)[C@H](CCc2ccc(C(F)(F)F)c(Cl)c2)NC(=O)CN(C)C(=O)[C@H](Cc2ccc(C(F)(F)F)cc2)N(CC)C(=O)[C@@H]2CCN2C(=O)[C@H](C)N(C)C1=O [PP0002] ([NMeL]I[NMeA][Aze][NEtPhe(4-CF3)][Sar][hPhe(3-Cl-4-CF3)]P[Ac5c][NMeGly(cPent)][NMeD]-Morpholide; lactam N-11) | C (A compound having a KD ratio of 0.1 or more and less than 3 is denoted as C) | C (A compound having a KD ratio of 0.1 or more and less than 3 is denoted as C) |
| CC[C@H](C)[C@@H]1NC(=O)[C@H](CC(C)C)N(C)C(=O)C[C@@H](C(=O)N2CCOCC2)N(C)C(=O)[C@H](C2CCCC2)N(C)C(=O)C2(CCCC2)NC(=O)[C@@H]2CCCN2C(=O)[C@H](CCc2ccc(C(F)(F)F)c(Cl)c2)NC(=O)CN(C)C(=O)[C@H](C2CCCC2)N(CC)C(=O)[C@@H]2CCN2C(=O)[C@H](C)N(C)C1=O [PP0003] ([NMeL]I[NMeA][Aze][X30][Sar][hPhe(3-Cl-4-CF3)]P[Ac5c][NMeGly(cPent)][NMeD]-Morpholide; lactam N-11) | C (A compound having a KD ratio of 0.1 or more and less than 3 is denoted as C) | C (A compound having a KD ratio of 0.1 or more and less than 3 is denoted as C) |
| CC[C@H](C)[C@@H]1NC(=O)[C@H](CC(C)C)N(C)C(=O)C[C@@H](C(=O)N2CCOCC2)N(C)C(=O)[C@H](C2CCCC2)N(C)C(=O)C2(CCCC2)NC(=O)[C@@H]2CCCN2C(=O)[C@H](CCc2ccc(C(F)(F)F)c(Cl)c2)NC(=O)CN(CC)C(=O)[C@H](Cc2ccc(C)cc2)N(C)C(=O)[C@@H]2CCN2C(=O)[C@H](C)N(C)C1=O [PP0004] ([NMeL]I[NMeA][Aze][NMePhe(4-Me)][NEtG][hPhe(3-Cl-4-CF3)]P[Ac5c][NMeGly(cPent)][NMeD]-Morpholide; lactam N-11) | C (A compound having a KD ratio of 0.1 or more and less than 3 is denoted as C) | C (A compound having a KD ratio of 0.1 or more and less than 3 is denoted as C) |
| CC[C@H](C)[C@@H]1NC(=O)[C@H](CC(C)C)N(C)C(=O)C[C@@H](C(=O)N2CCOCC2)N(C)C(=O)[C@H](C2CCCC2)N(C)C(=O)C2(CCCC2)NC(=O)[C@@H]2CCCN2C(=O)[C@H](CCc2ccc(C(F)(F)F)c(Cl)c2)NC(=O)CN(CC)C(=O)[C@H](Cc2ccc(C)cc2)N(CC)C(=O)[C@@H]2CCN2C(=O)[C@H](C)N(C)C1=O [PP0006] ([NMeL]I[NMeA][Aze][NEtPhe(4-Me)][NEtG][hPhe(3-Cl-4-CF3)]P[Ac5c][NMeGly(cPent)][NMeD]-Morpholide; lactam N-11) | C (A compound having a KD ratio of 0.1 or more and less than 3 is denoted as C) | C (A compound having a KD ratio of 0.1 or more and less than 3 is denoted as C) |
| CC[C@H](C)[C@@H]1NC(=O)[C@H](C)N(C)C(=O)C[C@@H](C(=O)N2CCOCC2)N(C)C(=O)[C@H](C2CCCC2)N(C)C(=O)C2(CCCC2)NC(=O)[C@@H]2CCCN2C(=O)[C@H](CCc2ccc(C(F)(F)F)c(Cl)c2)NC(=O)CN(C)C(=O)[C@H](Cc2ccc(C)cc2)N(CC)C(=O)[C@@H]2CCN2C(=O)[C@H](C)N(C)C1=O [PP0007] ([NMeA]I[NMeA][Aze][NEtPhe(4-Me)][Sar][hPhe(3-Cl-4-CF3)]P[Ac5c][NMeGly(cPent)][NMeD]-Morpholide; lactam N-11) | C (A compound having a KD ratio of 0.1 or more and less than 3 is denoted as C) | C (A compound having a KD ratio of 0.1 or more and less than 3 is denoted as C) |
| CC[C@H](C)[C@@H]1NC(=O)[C@H](CC(C)C)N(C)C(=O)C[C@@H](C(=O)N2CCOCC2)N(C)C(=O)[C@H](C2CCCC2)N(C)C(=O)C2(CCCC2)NC(=O)[C@@H]2CCCN2C(=O)[C@H](CCc2ccc(C(F)(F)F)c(Cl)c2)NC(=O)CN(C)C(=O)[C@H](Cc2ccccc2)N(C)C(=O)[C@@H]2CCN2C(=O)[C@H](C)N(C)C1=O [PP0011] ([NMeL]I[NMeA][Aze][NMeF][Sar][hPhe(3-Cl-4-CF3)]P[Ac5c][NMeGly(cPent)][NMeD]-Morpholide; lactam N-11) | C (A compound having a KD ratio of 0.1 or more and less than 3 is denoted as C) | C (A compound having a KD ratio of 0.1 or more and less than 3 is denoted as C) |
| CC[C@H](C)[C@@H]1NC(=O)[C@H](CC(C)C)N(C)C(=O)C[C@@H](C(=O)N2CCOCC2)N(C)C(=O)[C@H](C2CCCC2)N(C)C(=O)C2(CCCC2)NC(=O)[C@@H]2C[C@@H](O)CN2C(=O)[C@H](CCc2ccc(C(F)(F)F)c(Cl)c2)NC(=O)CN(C)C(=O)[C@H](Cc2ccc(C)cc2)N(CC)C(=O)[C@@H]2CCN2C(=O)[C@H](C)N(C)C1=O [PP0013] ([NMeL]I[NMeA][Aze][NEtPhe(4-Me)][Sar][hPhe(3-Cl-4-CF3)][Hyp][Ac5c][NMeGly(cPent)][NMeD]-Morpholide; lactam N-11) | C (A compound having a KD ratio of 0.1 or more and less than 3 is denoted as C) | C (A compound having a KD ratio of 0.1 or more and less than 3 is denoted as C) |
| CCO[C@@H]1C[C@H]2C(=O)NC3(CCCC3)C(=O)N(C)[C@@H](C3CCCC3)C(=O)N(C)[C@H](C(=O)N3CCOCC3)CC(=O)N(C)[C@@H](CC(C)C)C(=O)N[C@@H]([C@@H](C)CC)C(=O)N(C)[C@@H](C)C(=O)N3CC[C@H]3C(=O)N(CC)[C@@H](Cc3ccc(C)cc3)C(=O)N(C)CC(=O)N[C@@H](CCc3ccc(C(F)(F)F)c(Cl)c3)C(=O)N2C1 [PP0014] ([NMeL]I[NMeA][Aze][NEtPhe(4-Me)][Sar][hPhe(3-Cl-4-CF3)][Hyp](Et)[Ac5c][NMeGly(cPent)][NMeD]-Morpholide; lactam N-11) | C (A compound having a KD ratio of 0.1 or more and less than 3 is denoted as C) | C (A compound having a KD ratio of 0.1 or more and less than 3 is denoted as C) |
| CC[C@H](C)[C@@H]1NC(=O)[C@H](CC(C)C)N(C)C(=O)C[C@@H](C(=O)N2CCOCC2)N(C)C(=O)[C@H](C(C)C)N(C)C(=O)C2(CCCC2)NC(=O)[C@@H]2CCCN2C(=O)[C@H](CCc2ccc(C(F)(F)F)c(Cl)c2)NC(=O)CN(C)C(=O)[C@H](Cc2ccc(C)cc2)N(CC)C(=O)[C@@H]2CCN2C(=O)[C@H](C)N(C)C1=O [PP0015] ([NMeL]I[NMeA][Aze][NEtPhe(4-Me)][Sar][hPhe(3-Cl-4-CF3)]P[Ac5c][NMeV][NMeD]-Morpholide; lactam N-11) | C (A compound having a KD ratio of 0.1 or more and less than 3 is denoted as C) | C (A compound having a KD ratio of 0.1 or more and less than 3 is denoted as C) |
| CC[C@H](C)[C@@H]1NC(=O)[C@H](CC(C)C)N(C)C(=O)C[C@@H](C(=O)N2CCOCC2)N(C)C(=O)[C@H](CC(C)C)N(C)C(=O)C2(CCCC2)NC(=O)[C@@H]2CCCN2C(=O)[C@H](CCc2ccc(C(F)(F)F)c(Cl)c2)NC(=O)CN(C)C(=O)[C@H](Cc2ccc(C)cc2)N(CC)C(=O)[C@@H]2CCN2C(=O)[C@H](C)N(C)C1=O [PP0016] ([NMeL]I[NMeA][Aze][NEtPhe(4-Me)][Sar][hPhe(3-Cl-4-CF3)]P[Ac5c][NMeL][NMeD]-Morpholide; lactam N-11) | C (A compound having a KD ratio of 0.1 or more and less than 3 is denoted as C) | C (A compound having a KD ratio of 0.1 or more and less than 3 is denoted as C) |
| CC[C@H](C)[C@@H]1NC(=O)[C@H](CC(C)C)N(C)C(=O)C[C@@H](C(=O)N2CCOCC2)N(C)C(=O)[C@H](C2CCCC2)N(C)C(=O)C2(CCCC2)NC(=O)[C@@H]2CCCN2C(=O)[C@H](CCc2ccc(C(F)(F)F)c(Cl)c2)NC(=O)CN(C)C(=O)[C@H](Cc2ccc(C)cc2)N(C)C(=O)CN(C)C(=O)CN(C)C1=O [PP0018] ([NMeL]I[Sar][Sar][NMePhe(4-Me)][Sar][hPhe(3-Cl-4-CF3)]P[Ac5c][NMeGly(cPent)][NMeD]-Morpholide; lactam N-11) | C (A compound having a KD ratio of 0.1 or more and less than 3 is denoted as C) | C (A compound having a KD ratio of 0.1 or more and less than 3 is denoted as C) |
| CC[C@H](C)[C@@H]1NC(=O)[C@H](CC(C)C)N(C)C(=O)C[C@@H](C(=O)N2CCOCC2)N(C)C(=O)[C@H](C2CCCC2)N(C)C(=O)C2(CCCC2)NC(=O)[C@@H]2CCCN2C(=O)[C@H](CCc2ccc(C(F)(F)F)c(Cl)c2)NC(=O)CN(C)C(=O)[C@H](Cc2ccc(C)cc2)N(C)C(=O)CN(CC)C(=O)CN(C)C1=O [PP0019] ([NMeL]I[Sar][NEtG][NMePhe(4-Me)][Sar][hPhe(3-Cl-4-CF3)]P[Ac5c][NMeGly(cPent)][NMeD]-Morpholide; lactam N-11) | C (A compound having a KD ratio of 0.1 or more and less than 3 is denoted as C) | C (A compound having a KD ratio of 0.1 or more and less than 3 is denoted as C) |

Source: patent US20250230193A1, “CYCLIC COMPOUND HAVING SELECTIVE KRAS INHIBITORY EFFECT ON HRAS AND NRAS” (CHUGAI SEIYAKU KABUSHIKI KAISHA, priority 2022, published 2025)
